{"source": "patent US20140039044A1", "about": "“Hydroxylated Polymethoxyflavone Compositions” (WLLGEN, INC., priority 2006, published 2014)", "format_in_all_cases": "cell-based, human", "key": {"AGS cells [1]": {"test_system": "AGS cells", "assay": "Apoptotic ratio by propidium iodide flow cytometry (AC50)", "details": "Homo sapiens, AGS, read-out: Apoptosis-inducing AC50", "protocol": "(§1) The human cancer cells (2×10^5) were cultured in 60-mm Petri dishes and incubated for 24 h. After treated with test compounds for 24 h, the cells were then harvested, washed with PBS resuspended in 200 μL of PBS, and fixed in 800 μL of iced 100% ethanol at −20° C. After being left to stand overnight, the cell pellets were collected by centrifugation, resuspended in 1 mL of hypotonic buffer (0.5% Triton X-100 in PBS and 0.5 μg/mL RNase) and incubated at 37° C. for 30 min. Next, 1 mL of propidium iodide solution (50 μg/mL) was added, and the mixture was allowed to stand on ice for 30 min. Fluorescence emitted from the propidium iodide-DNA complex was quantitated after excitation of the fluorescent dye by FACScan cytometry (Becton Dickinson, San Jose, Calif.).\n(§2) 1 N PMF and 6 N PMF compositions containing hydroxylated PMFs, prepared as described in Section 8.3 above, 70% PMF OPE and 5,6,7,8,3′,4′-hexamethoxyflavone (nobiletin) were tested for antiproliferative activity and apoptosis-inducing activity in HL-60, AGS and COLO205 cells as described in Section 8.4 above. Antiproliferative and apoptosis-inducing activities were derived as IC50 values and AC50, values, respectively, where AC50 is the concentration required for 50% apoptosis.\n(§3) The PMF compounds were assayed in vitro for cell growth inhibition and for their ability to induce apoptosis in various human cancer cells, including HL-60, AGS, COLO 205, and HT-29 cells, using methods described in Section 8.4 above. Antiproliferative (IC50) and apoptosis-inducing activity (AC50) of PMFs in the HL-60, AGS, COLO 205, and HT-29 cells are reported in Table 9, where *P<0.05, **P<0.01 and ***P<0.001 indicate statistically significant differences from the control group."}, "COLO205 cells [2]": {"test_system": "COLO205 cells", "assay": "Apoptotic ratio by propidium iodide flow cytometry (AC50)", "details": "Homo sapiens, COLO 205, read-out: Apoptosis-inducing AC50", "protocol": "as §1, §2, §3"}, "HL-60 cells [3]": {"test_system": "HL-60 cells", "assay": "Apoptotic ratio by propidium iodide flow cytometry (AC50)", "details": "Homo sapiens, HL-60, read-out: Apoptosis-inducing AC50", "protocol": "as §1, §2, §3"}, "AGS cells [4]": {"test_system": "AGS cells", "assay": "Cell cycle distribution by flow cytometry", "details": "24 h, Table 11", "protocol": "as §1\n(§4) The effects of the hydrolyzed PMF-enriched compositions, nobiletin and 70% PMF OPE on cell cycle distribution were studied, following the procedures described in Section 8.4. Results for cell cycle distribution in HL-60 cells, COLO205 cells and AGS cells are provided in Table 5, Table 6 and Table 7, respectively. […] In HL-60 cells, G2/M arrest predominated in cells treated with 6N PMF concentrations ≧5 μM and with 1N PMF concentrations ≧25 μM.\n(§5) Compounds A-K were evaluated in terms of their effects in arresting cell cycle progression by observing cell cycle phase distribution in cells treated with the compounds. Cells were treated with 5, 10, 25, 50, and 100 μM of one of compound A-K or DMSO (control) for 24 h and subjected to flow cytometric analysis after staining their DNA, as described above.\n(§6) Similar cell cycle phase distribution studies were performed in AGS, COLO205, and HT-29 cells in response to individual PMFs, with results reported in Tables 11, 12 and 13, respectively."}, "COLO205 cells [5]": {"test_system": "COLO205 cells", "assay": "Cell cycle distribution by flow cytometry", "details": "24 h; for Cell Cycle Distribution G0/G1 / Cell Cycle Distribution G2/M / Cell Cycle Distribution S: COLO205 cells, Table 12", "protocol": "as §1, §4, §5, §6"}, "HT-29 cells": {"test_system": "HT-29 cells", "assay": "Cell cycle distribution by flow cytometry", "details": "for Cell Cycle Distribution G0/G1 / Cell Cycle Distribution G2/M / Cell Cycle Distribution S: 24 h", "protocol": "as §1, §5, §6"}, "HL-60 cells [6]": {"test_system": "HL-60 cells", "assay": "Cell cycle distribution by flow cytometry", "details": "24 h, Table 10", "protocol": "as §1, §4, §5"}}}
{"smiles": "COc1ccc(-c2cc(=O)c3c(OC)c(OC)c(OC)c(OC)c3o2)cc1O", "note": "[I, 3′-hydroxy-5,6,7,8,4′-pentamethoxyflavone]", "values": [{"measurement": "AC50", "setting": "AGS cells [1]", "value": "> 100", "unit": "µM"}, {"measurement": "AC50", "setting": "COLO205 cells [2]", "value": "> 100", "unit": "µM"}, {"measurement": "AC50", "setting": "HL-60 cells [3]", "value": "94.6 ± 1.5", "unit": "µM"}, {"measurement": "Cell Cycle Distribution G0/G1", "setting": "AGS cells [4]; 5 μM", "value": "57.25 ± 0.28"}, {"measurement": "Cell Cycle Distribution G2/M", "setting": "AGS cells [4]; 5 μM", "value": "16.01 ± 0.21"}, {"measurement": "Cell Cycle Distribution S", "setting": "AGS cells [4]; 5 μM", "value": "26.74 ± 0.49"}, {"measurement": "Cell Cycle Distribution G0/G1", "setting": "AGS cells [4]; 10 μM", "value": "58.27 ± 0.96"}, {"measurement": "Cell Cycle Distribution G2/M", "setting": "AGS cells [4]; 10 μM", "value": "17.94 ± 1.07"}, {"measurement": "Cell Cycle Distribution S", "setting": "AGS cells [4]; 10 μM", "value": "23.79 ± 2.03"}, {"measurement": "Cell Cycle Distribution G0/G1", "setting": "AGS cells [4]; 25 μM", "value": "49.07 ± 1.22"}, {"measurement": "Cell Cycle Distribution G2/M", "setting": "AGS cells [4]; 25 μM", "value": "16.15 ± 0.69"}, {"measurement": "Cell Cycle Distribution S", "setting": "AGS cells [4]; 25 μM", "value": "34.79 ± 1.90"}, {"measurement": "Cell Cycle Distribution G0/G1", "setting": "AGS cells [4]; 50 μM", "value": "62.72 ± 1.27"}, {"measurement": "Cell Cycle Distribution G2/M", "setting": "AGS cells [4]; 50 μM", "value": "0.59 ± 0.74"}, {"measurement": "Cell Cycle Distribution S", "setting": "AGS cells [4]; 50 μM", "value": "36.70 ± 2.00"}, {"measurement": "Cell Cycle Distribution G0/G1", "setting": "AGS cells [4]; 100 μM", "value": "69.35 ± 0.70"}, {"measurement": "Cell Cycle Distribution G2/M", "setting": "AGS cells [4]; 100 μM", "value": "12.65 ± 0.84"}, {"measurement": "Cell Cycle Distribution S", "setting": "AGS cells [4]; 100 μM", "value": "18.01 ± 0.14"}, {"measurement": "Cell Cycle Distribution G0/G1", "setting": "COLO205 cells [5]; 5 μM", "value": "64.51 ± 1.26"}, {"measurement": "Cell Cycle Distribution G2/M", "setting": "COLO205 cells [5]; 5 μM", "value": "6.46 ± 0.35"}, {"measurement": "Cell Cycle Distribution S", "setting": "COLO205 cells [5]; 5 μM", "value": "29.03 ± 1.61"}, {"measurement": "Cell Cycle Distribution G0/G1", "setting": "COLO205 cells [5]; 10 μM", "value": "64.14 ± 1.71"}, {"measurement": "Cell Cycle Distribution G2/M", "setting": "COLO205 cells [5]; 10 μM", "value": "5.54 ± 0.41"}, {"measurement": "Cell Cycle Distribution S", "setting": "COLO205 cells [5]; 10 μM", "value": "30.32 ± 1.30"}, {"measurement": "Cell Cycle Distribution G0/G1", "setting": "COLO205 cells [5]; 25 μM", "value": "67.09 ± 0.57"}, {"measurement": "Cell Cycle Distribution G2/M", "setting": "COLO205 cells [5]; 25 μM", "value": "5.43 ± 1.17"}, {"measurement": "Cell Cycle Distribution S", "setting": "COLO205 cells [5]; 25 μM", "value": "27.48 ± 0.62"}, {"measurement": "Cell Cycle Distribution G0/G1", "setting": "COLO205 cells [5]; 50 μM", "value": "68.03 ± 1.51"}, {"measurement": "Cell Cycle Distribution G2/M", "setting": "COLO205 cells [5]; 50 μM", "value": "4.83 ± 1.48"}, {"measurement": "Cell Cycle Distribution S", "setting": "COLO205 cells [5]; 50 μM", "value": "27.15 ± 0.04"}, {"measurement": "Cell Cycle Distribution G0/G1", "setting": "COLO205 cells [5]; 100 μM", "value": "83.31 ± 1.06"}, {"measurement": "Cell Cycle Distribution G2/M", "setting": "COLO205 cells [5]; 100 μM", "value": "0.02 ± 0.02"}, {"measurement": "Cell Cycle Distribution S", "setting": "COLO205 cells [5]; 100 μM", "value": "16.68 ± 1.04"}, {"measurement": "Cell cycle arrest, in words", "setting": "COLO205 cells [5]; COLO 205 cells, compound A 50 μM, compound I 100 μM", "value": "trends in G1 arrest"}, {"measurement": "Cell Cycle Distribution G0/G1", "setting": "HT-29 cells; 5 μM", "value": "60.78 ± 1.52"}, {"measurement": "Cell Cycle Distribution G2/M", "setting": "HT-29 cells; 5 μM", "value": "7.95 ± 0.71"}, {"measurement": "Cell Cycle Distribution S", "setting": "HT-29 cells; 5 μM", "value": "31.28 ± 0.81"}, {"measurement": "Cell Cycle Distribution G0/G1", "setting": "HT-29 cells; 10 μM", "value": "61.09 ± 1.06"}, {"measurement": "Cell Cycle Distribution G2/M", "setting": "HT-29 cells; 10 μM", "value": "7.89 ± 0.23"}, {"measurement": "Cell Cycle Distribution S", "setting": "HT-29 cells; 10 μM", "value": "31.02 ± 1.30"}, {"measurement": "Cell Cycle Distribution G0/G1", "setting": "HT-29 cells; 25 μM", "value": "60.90 ± 0.87"}, {"measurement": "Cell Cycle Distribution G2/M", "setting": "HT-29 cells; 25 μM", "value": "7.48 ± 0.64"}, {"measurement": "Cell Cycle Distribution S", "setting": "HT-29 cells; 25 μM", "value": "31.63 ± 0.23"}, {"measurement": "Cell Cycle Distribution G0/G1", "setting": "HT-29 cells; 50 μM", "value": "66.36 ± 0.88"}, {"measurement": "Cell Cycle Distribution G2/M", "setting": "HT-29 cells; 50 μM", "value": "9.83 ± 0.61"}, {"measurement": "Cell Cycle Distribution S", "setting": "HT-29 cells; 50 μM", "value": "23.81 ± 0.28"}, {"measurement": "Cell Cycle Distribution G0/G1", "setting": "HT-29 cells; 100 μM", "value": "74.18 ± 2.33"}, {"measurement": "Cell Cycle Distribution G2/M", "setting": "HT-29 cells; 100 μM", "value": "0.37 ± 0.40"}, {"measurement": "Cell Cycle Distribution S", "setting": "HT-29 cells; 100 μM", "value": "25.45 ± 2.72"}, {"measurement": "Cell cycle arrest, in words", "setting": "HT-29 cells; 5-100 μM, 24 h exposure", "value": "significant accumulation of cells in G1 phase"}, {"measurement": "Cell Cycle Distribution G0/G1", "setting": "HL-60 cells [6]; 5 μM", "value": "44.51 ± 2.37"}, {"measurement": "Cell Cycle Distribution G2/M", "setting": "HL-60 cells [6]; 5 μM", "value": "9.23 ± 0.16"}, {"measurement": "Cell Cycle Distribution S", "setting": "HL-60 cells [6]; 5 μM", "value": "46.27 ± 2.21"}, {"measurement": "Cell Cycle Distribution G0/G1", "setting": "HL-60 cells [6]; 10 μM", "value": "43.22 ± 1.85"}, {"measurement": "Cell Cycle Distribution G2/M", "setting": "HL-60 cells [6]; 10 μM", "value": "11.92 ± 0.64"}, {"measurement": "Cell Cycle Distribution S", "setting": "HL-60 cells [6]; 10 μM", "value": "44.86 ± 2.49"}, {"measurement": "Cell Cycle Distribution G0/G1", "setting": "HL-60 cells [6]; 25 μM", "value": "50.55 ± 0.97"}, {"measurement": "Cell Cycle Distribution G2/M", "setting": "HL-60 cells [6]; 25 μM", "value": "10.75 ± 0.41"}, {"measurement": "Cell Cycle Distribution S", "setting": "HL-60 cells [6]; 25 μM", "value": "38.71 ± 1.38"}, {"measurement": "Cell Cycle Distribution G0/G1", "setting": "HL-60 cells [6]; 50 μM", "value": "50.23 ± 1.94"}, {"measurement": "Cell Cycle Distribution G2/M", "setting": "HL-60 cells [6]; 50 μM", "value": "6.36 ± 1.69"}, {"measurement": "Cell Cycle Distribution S", "setting": "HL-60 cells [6]; 50 μM", "value": "43.41 ± 3.62"}, {"measurement": "Cell Cycle Distribution G0/G1", "setting": "HL-60 cells [6]; 100 μM", "value": "65.54 ± 4.07"}, {"measurement": "Cell Cycle Distribution G2/M", "setting": "HL-60 cells [6]; 100 μM", "value": "13.24 ± 11.61"}, {"measurement": "Cell Cycle Distribution S", "setting": "HL-60 cells [6]; 100 μM", "value": "21.31 ± 15.55"}]}
